Test results reported in ChEMBL document CHEMBL1132364, “Structure-activity relationship of N-(phenylalkyl)cinnamides as novel NR2B subtype-selective NMDA receptor antagonists” (J Med Chem, 1999).

How the values were obtained:
[1] = target: Epidermal growth factor receptor (Homo sapiens, UniProt P00533); experiment: Inhibition of Epidermal growth factor receptor autophosphorylation
[2] = target: Glutamate NMDA receptor; Grin1/Grin2a (Rattus norvegicus, UniProt P35439+Q00959); experiment: Antagonistic activity against N-methyl-D-aspartate glutamate receptor 1/2A.; format: functional
[3] = target: Glutamate NMDA receptor; Grin1/Grin2b (Rattus norvegicus, UniProt P35439+Q00960); experiment: Antagonistic activity against N-methyl-D-aspartate glutamate receptor 1/2B.; format: functional
[4] = target: Glutamate NMDA receptor; Grin1/Grin2c (Rattus norvegicus, UniProt P35439+Q00961); experiment: Antagonistic activity against N-methyl-D-aspartate glutamate receptor 1/2C.; format: functional
[5] = target: T1, Alpha-1A adrenergic receptor (Homo sapiens, UniProt P35348); experiment: Inhibition of Alpha-1 adrenergic receptor
T1 sequence (P35348 whole entry): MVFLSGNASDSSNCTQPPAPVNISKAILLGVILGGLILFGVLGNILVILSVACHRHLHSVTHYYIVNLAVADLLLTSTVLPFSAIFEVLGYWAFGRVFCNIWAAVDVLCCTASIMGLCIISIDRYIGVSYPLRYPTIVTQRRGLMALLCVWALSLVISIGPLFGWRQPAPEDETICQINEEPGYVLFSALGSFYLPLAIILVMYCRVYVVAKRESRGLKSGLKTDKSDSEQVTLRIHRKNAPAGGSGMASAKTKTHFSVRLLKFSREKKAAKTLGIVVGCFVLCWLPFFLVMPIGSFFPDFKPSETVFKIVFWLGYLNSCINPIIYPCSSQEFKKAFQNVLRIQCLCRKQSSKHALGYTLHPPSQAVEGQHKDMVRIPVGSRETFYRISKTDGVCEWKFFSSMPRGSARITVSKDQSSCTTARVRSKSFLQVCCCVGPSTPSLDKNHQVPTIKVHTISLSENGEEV

Sequence of Glutamate NMDA receptor; Grin1/Grin2a (Q00959 whole entry, other chains not shown): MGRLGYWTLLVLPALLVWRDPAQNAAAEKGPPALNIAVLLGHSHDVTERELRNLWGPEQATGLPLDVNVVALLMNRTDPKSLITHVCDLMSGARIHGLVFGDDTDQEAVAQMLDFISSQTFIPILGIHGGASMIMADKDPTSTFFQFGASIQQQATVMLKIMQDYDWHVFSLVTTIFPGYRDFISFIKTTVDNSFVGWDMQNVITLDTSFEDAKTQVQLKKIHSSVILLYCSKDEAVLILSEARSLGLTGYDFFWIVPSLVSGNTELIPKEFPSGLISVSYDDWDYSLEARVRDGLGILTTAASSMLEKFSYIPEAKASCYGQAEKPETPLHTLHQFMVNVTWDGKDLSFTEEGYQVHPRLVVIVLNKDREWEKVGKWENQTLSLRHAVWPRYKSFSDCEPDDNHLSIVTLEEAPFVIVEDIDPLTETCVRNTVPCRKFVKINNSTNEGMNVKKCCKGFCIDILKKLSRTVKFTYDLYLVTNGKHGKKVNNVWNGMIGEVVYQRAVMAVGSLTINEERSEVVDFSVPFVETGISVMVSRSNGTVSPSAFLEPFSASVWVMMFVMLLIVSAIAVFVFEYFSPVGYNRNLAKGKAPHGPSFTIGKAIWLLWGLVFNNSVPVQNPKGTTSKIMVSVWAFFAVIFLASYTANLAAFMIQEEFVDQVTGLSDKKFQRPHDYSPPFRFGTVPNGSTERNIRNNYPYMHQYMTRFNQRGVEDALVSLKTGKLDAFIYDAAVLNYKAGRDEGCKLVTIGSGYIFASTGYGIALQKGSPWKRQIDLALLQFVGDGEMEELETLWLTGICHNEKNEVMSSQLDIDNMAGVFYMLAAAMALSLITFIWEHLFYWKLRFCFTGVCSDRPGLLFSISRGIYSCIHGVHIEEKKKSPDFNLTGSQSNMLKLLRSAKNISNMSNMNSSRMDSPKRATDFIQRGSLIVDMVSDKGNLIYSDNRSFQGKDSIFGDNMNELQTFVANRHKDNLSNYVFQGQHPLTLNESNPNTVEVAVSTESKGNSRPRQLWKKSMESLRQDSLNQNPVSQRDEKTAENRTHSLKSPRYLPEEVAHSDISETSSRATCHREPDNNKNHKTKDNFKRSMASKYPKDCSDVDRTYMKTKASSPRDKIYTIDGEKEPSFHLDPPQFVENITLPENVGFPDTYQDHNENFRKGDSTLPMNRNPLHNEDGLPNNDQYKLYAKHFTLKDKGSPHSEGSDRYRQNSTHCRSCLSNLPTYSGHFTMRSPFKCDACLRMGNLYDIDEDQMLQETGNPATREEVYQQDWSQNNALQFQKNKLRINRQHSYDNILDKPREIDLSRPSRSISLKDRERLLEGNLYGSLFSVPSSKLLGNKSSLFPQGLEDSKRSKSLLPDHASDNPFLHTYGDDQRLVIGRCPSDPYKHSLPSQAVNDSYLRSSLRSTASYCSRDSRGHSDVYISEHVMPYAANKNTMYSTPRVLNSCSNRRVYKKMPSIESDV
Sequence of Glutamate NMDA receptor; Grin1/Grin2c (Q00961 whole entry, other chains not shown): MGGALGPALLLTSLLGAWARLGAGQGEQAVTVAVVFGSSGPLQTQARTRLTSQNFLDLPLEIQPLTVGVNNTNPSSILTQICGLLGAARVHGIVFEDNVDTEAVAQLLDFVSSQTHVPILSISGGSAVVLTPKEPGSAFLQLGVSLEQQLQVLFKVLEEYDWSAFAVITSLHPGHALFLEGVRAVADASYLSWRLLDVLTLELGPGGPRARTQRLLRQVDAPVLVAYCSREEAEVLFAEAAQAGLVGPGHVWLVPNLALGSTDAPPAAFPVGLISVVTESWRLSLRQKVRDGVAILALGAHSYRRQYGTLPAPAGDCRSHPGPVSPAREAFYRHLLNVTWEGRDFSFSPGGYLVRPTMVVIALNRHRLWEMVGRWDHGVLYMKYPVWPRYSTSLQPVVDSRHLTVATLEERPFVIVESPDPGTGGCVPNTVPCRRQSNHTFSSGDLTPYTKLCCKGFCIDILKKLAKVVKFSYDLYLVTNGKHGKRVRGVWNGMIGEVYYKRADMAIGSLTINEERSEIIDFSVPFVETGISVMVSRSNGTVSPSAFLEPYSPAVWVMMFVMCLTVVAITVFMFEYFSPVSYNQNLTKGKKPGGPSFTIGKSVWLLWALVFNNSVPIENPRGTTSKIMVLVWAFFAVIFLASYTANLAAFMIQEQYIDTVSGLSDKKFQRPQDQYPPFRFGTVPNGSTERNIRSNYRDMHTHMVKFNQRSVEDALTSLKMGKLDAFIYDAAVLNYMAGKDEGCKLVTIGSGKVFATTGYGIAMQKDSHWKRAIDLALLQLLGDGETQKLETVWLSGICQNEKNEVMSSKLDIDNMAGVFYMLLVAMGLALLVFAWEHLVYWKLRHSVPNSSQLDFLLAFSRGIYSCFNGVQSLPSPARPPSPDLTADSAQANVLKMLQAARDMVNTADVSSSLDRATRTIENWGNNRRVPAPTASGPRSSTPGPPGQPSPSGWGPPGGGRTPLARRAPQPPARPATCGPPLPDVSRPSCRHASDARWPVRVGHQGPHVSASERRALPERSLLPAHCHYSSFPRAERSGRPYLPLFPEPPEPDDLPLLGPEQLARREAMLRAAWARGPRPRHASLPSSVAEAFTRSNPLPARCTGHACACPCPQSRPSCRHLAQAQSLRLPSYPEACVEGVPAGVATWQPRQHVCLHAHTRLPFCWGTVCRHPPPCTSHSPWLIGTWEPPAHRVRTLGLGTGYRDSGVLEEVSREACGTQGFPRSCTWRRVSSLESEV
Sequence of Glutamate NMDA receptor; Grin1/Grin2b (Q00960 whole entry, other chains not shown): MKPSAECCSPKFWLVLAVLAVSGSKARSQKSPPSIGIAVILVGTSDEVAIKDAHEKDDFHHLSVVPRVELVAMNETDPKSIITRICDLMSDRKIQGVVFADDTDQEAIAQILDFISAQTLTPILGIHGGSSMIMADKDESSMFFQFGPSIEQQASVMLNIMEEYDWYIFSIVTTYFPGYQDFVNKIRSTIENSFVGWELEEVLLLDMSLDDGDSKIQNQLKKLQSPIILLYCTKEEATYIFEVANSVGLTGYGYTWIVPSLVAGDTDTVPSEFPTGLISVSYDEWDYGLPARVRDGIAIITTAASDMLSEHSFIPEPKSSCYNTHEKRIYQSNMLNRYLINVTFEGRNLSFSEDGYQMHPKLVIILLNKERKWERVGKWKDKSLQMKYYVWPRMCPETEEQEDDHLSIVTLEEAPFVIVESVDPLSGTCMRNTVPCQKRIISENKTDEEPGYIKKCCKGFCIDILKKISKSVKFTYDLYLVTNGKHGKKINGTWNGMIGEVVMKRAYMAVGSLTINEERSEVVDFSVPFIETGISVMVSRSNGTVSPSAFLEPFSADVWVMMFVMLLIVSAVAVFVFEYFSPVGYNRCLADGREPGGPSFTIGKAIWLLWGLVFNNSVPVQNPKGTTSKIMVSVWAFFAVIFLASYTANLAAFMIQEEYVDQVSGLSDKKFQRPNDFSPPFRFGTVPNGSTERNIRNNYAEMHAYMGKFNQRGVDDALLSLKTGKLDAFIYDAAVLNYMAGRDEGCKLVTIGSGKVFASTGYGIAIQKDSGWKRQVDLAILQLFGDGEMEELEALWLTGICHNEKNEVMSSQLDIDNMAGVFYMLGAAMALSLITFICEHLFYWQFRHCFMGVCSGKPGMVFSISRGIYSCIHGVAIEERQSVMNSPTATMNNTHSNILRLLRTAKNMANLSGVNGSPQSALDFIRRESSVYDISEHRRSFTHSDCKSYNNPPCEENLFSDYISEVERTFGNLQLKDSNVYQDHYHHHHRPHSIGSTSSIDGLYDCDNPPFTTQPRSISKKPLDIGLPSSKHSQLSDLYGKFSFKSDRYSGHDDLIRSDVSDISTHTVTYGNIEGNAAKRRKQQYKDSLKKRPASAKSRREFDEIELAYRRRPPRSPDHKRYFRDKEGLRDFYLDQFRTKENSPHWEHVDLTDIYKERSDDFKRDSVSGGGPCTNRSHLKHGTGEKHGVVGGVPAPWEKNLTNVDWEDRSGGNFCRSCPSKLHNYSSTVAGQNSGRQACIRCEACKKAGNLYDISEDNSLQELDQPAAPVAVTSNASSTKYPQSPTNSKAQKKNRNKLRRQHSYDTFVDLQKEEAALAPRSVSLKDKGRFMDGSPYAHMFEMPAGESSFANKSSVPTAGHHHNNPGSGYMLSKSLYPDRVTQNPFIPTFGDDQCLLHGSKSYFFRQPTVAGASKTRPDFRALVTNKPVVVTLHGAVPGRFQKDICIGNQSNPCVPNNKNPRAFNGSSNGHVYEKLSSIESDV

SMILES | IC50 [1] | IC50 [2] | IC50 [3] | IC50 [4] | IC50 [5]
N#C/C(=C\c1ccc(O)c(O)c1)C(=O)NCCc1ccccc1 | < 0.625 µM | > 100 µM | 1.7 µM | > 100 µM | 
O=C(/C=C/c1ccc(O)cc1)NCCc1ccc(O)cc1 [N-P-COUMAROYL TYRAMINE] |  | > 100 µM | 21 µM | > 100 µM | 
N#C/C(=C\c1ccc(O)cc1)C(=O)NCCCCc1ccccc1 |  | > 100 µM | 0.29 µM | > 100 µM | 
C[C@H]([C@@H](O)c1ccc(O)cc1)N1CCC(Cc2ccccc2)CC1 [(S,R)-IFENPRODIL] |  |  |  |  | 0.1 µM
N#C/C(=C\c1ccc(O)c(O)c1)C(=O)NCc1ccccc1 |  | 19 µM | 45 µM | 100 µM | 
O=C(O)COc1ccc(CCNC(=O)/C=C/c2ccc(Cl)cc2)cc1 |  | 45 µM | 52 µM | > 100 µM | 
O=C(/C=C/c1ccc(Cl)cc1)NCCc1ccccc1 |  | > 100 µM | > 100 µM | > 100 µM | 
O=C(/C=C/c1ccc(O)cc1)N1CCC(Cc2ccccc2)CC1 |  | > 100 µM |  | > 100 µM | > 100 µM
N#C/C(=C\c1ccccc1)C(=O)NCCCCc1ccccc1 |  | > 100 µM | 80 µM | > 100 µM | 
N#C/C(=C\C(=O)NCCc1ccc(O)cc1)c1ccccc1 |  | > 100 µM | 46 µM | > 100 µM | 
O=C(/C=C/c1ccc(O)cc1)NCCCCc1ccc(Cl)cc1 |  | > 100 µM | 0.125 µM | > 100 µM | 
C[C@@H]([C@@H](O)c1ccc(O)cc1)N1CCC(O)(c2ccccc2)CC1 [TRAXOPRODIL] |  | > 100 µM |  | > 100 µM | 
O=C(/C=C/c1ccccc1)NCCCCc1ccccc1 |  | > 100 µM | 24 µM | > 100 µM | 
O=C(/C=C/c1ccc(O)cc1)NCCc1ccc(Cl)cc1 |  | > 100 µM | 0.33 µM | > 100 µM | 
O=C(/C=C/c1ccc(Cl)cc1)NCCc1ccc(O)cc1 |  | > 100 µM | 0.17 µM | > 100 µM | 
O=C(/C=C/c1ccc(O)cc1)NCCCCc1ccccc1 |  | > 100 µM | 0.077 µM | > 100 µM | > 100 µM
N#C/C(=C\c1ccc(O)c(O)c1)C(=O)Nc1ccccc1 |  | > 100 µM | 90 µM | > 100 µM | 
CCN(CC)CCOc1ccc(CCNC(=O)/C=C/c2ccc(Cl)cc2)cc1 |  | 49 µM | 32 µM | > 100 µM | 

SMILES | IC50 [1] | IC50 [2] | IC50 [3] | IC50 [4] | IC50 [5]
O=C(/C=C/c1cc(Cl)ccc1Cl)NCCCCc1ccccc1 |  | > 100 µM | > 100 µM | > 100 µM | 
O=C(CCc1ccc(O)cc1)NCCCCc1ccccc1 |  | > 100 µM | 0.43 µM | > 100 µM | 
N#C/C(=C\c1ccc(O)c(O)c1)C(=O)NCCCCc1ccccc1 |  | > 100 µM | 0.56 µM | > 100 µM | > 100 µM
O=C(/C=C/c1ccccc1)NCCc1ccc(O)cc1 |  | > 100 µM | 0.68 µM | > 100 µM | 
N#C/C(=C\c1ccc(Cl)cc1)C(=O)NCCc1ccc(O)cc1 |  | 78 µM | 3.4 µM | > 100 µM | 
N#C/C(=C\c1ccc(Cl)cc1)C(=O)NCCCCc1ccccc1 |  | > 100 µM | > 100 µM | > 100 µM | 
O=C(/C=C/c1ccc(Cl)cc1)NCCc1cccc(O)c1 |  | > 100 µM | 7.4 µM | > 100 µM | 
O=C(/C=C/c1ccc(Cl)cc1)NCCc1ccccc1O |  | > 100 µM | 8.3 µM | > 100 µM | 
N#C/C(=C\c1ccc(O)c(O)c1)C(=O)NCCCc1ccccc1 |  | > 100 µM | 0.66 µM | 60 µM | 
O=C(/C=C/c1ccc(Cl)cc1)NCCc1ccc(Cl)cc1 |  | > 100 µM | > 100 µM | > 100 µM | 
C[C@@H](CN1CCC(Cc2ccccc2)CC1)[C@@H](O)c1ccc(O)cc1 |  | 52 µM | 0.009 µM |  | 
O=C(CCCCCc1ccccc1)CCc1ccc(O)cc1 |  | 23 µM | 1.8 µM | > 100 µM | 
N#C/C(=C\C(=O)NCCc1ccc(O)cc1)c1ccc(Cl)cc1 |  | > 100 µM | 9 µM | > 100 µM | 
O=C(/C=C/c1ccc(Cl)cc1Cl)NCCc1ccc(O)cc1 |  | > 100 µM | 19 µM | > 100 µM | > 100 µM
N#C/C(=C\c1ccc(F)cc1)C(=O)NCCCCc1ccccc1 |  | > 100 µM | > 100 µM | > 100 µM | 
O=C(/C=C/c1ccc(O)cc1)NCCc1ccccc1 |  | > 100 µM | 1.5 µM | > 100 µM | 
N#C/C(=C\c1cccc(O)c1)C(=O)NCCCCc1ccccc1 |  | > 100 µM | > 100 µM | > 100 µM | 
